Data as given in PubChem BioAssay AID1053170 (The Scripps Research Institute Molecular Screening Center, 2014).
Active and inactive are the calls of the source. The rule behind the calls is not given here.

Target: E3 ubiquitin-protein ligase UHRF1 (Homo sapiens) (UniProt Q96T88)
Assay: blockers of UHRF1 binding to methyl-oligo – biochemical, TR-FRET, human UHRF1, dose response, counter-screen for MBD2 inhibitor project, late-stage follow-up (AID 1053170)
Details: TR-FRET UHRF1-methylated DNA binding

Chain of E3 ubiquitin-protein ligase UHRF1 (Homo sapiens) (Q96T88 whole entry, looked up): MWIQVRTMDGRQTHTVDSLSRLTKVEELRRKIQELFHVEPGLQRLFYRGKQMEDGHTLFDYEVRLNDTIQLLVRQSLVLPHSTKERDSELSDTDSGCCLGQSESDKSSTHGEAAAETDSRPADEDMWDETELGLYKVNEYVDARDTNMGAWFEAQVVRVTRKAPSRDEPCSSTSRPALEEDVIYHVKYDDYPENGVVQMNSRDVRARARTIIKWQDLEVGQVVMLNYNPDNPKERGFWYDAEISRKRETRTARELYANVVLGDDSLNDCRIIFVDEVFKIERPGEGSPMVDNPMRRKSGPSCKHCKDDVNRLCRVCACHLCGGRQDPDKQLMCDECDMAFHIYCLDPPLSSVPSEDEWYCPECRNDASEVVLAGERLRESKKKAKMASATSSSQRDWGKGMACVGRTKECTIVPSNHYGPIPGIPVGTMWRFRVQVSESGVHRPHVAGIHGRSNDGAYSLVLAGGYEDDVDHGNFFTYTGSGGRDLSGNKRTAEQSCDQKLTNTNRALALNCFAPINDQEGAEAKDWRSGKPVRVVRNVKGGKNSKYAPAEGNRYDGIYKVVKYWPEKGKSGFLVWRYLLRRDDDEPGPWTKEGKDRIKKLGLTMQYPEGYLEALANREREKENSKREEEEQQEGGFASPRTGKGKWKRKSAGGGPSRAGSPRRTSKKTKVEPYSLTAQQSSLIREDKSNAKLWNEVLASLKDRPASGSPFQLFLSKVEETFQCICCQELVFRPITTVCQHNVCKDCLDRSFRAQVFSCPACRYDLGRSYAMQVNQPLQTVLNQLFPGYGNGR

Row | SMILES | IC50
1 | COc1ccccc1C(=O)COC(=O)c1ccc(N(C)C)cc1 | > 43.8 µM (inactive)
2 | CCOc1ccc(S(=O)(=O)N2CCCC(C(=O)NCC3CCCO3)C2)cc1Cl (configuration not stated) | > 43.8 µM (inactive)
3 | O=C(CSc1ccccn1)Nc1ccc(N2CCOCC2)cc1 | > 43.8 µM (inactive)
4 | CN(C)CCNc1ccc(CO)c2sc3ccc(O)cc3c(=O)c12 | > 43.8 µM (inactive)
5 | Cc1c2cnn(CC(=O)Nc3c(F)c(F)cc(F)c3F)c(=O)c2c(C)n1Cc1ccccc1F | inactive
6 | CC(C)C(=O)Nc1nnc(SCC(=O)NC2CCCC2)s1 | > 43.8 µM (inactive)
7 | CCCCn1c(NC(C)CC)nc2c1c(=O)[nH]c(=O)n2C (configuration not stated) | > 43.8 µM (inactive)
8 | COc1ccc(NC(=O)COC(=O)CCc2ccc(S(=O)(=O)N3CCOCC3)cc2)cc1Cl | > 43.8 µM (inactive)
9 | O=C(CSc1nc(-c2ccccc2)c(-c2ccccc2)o1)N1CCOCC1 | > 43.8 µM (inactive)
10 | CC(=O)N(c1ccccc1)c1nc(/C=C/C(=O)Nc2c(C)cc(C)cc2C)cs1 | > 43.8 µM (inactive)
11 | CCOC(=O)c1oc2ccc(CNC(C)(C)C)c(Cl)c2c1C | > 43.8 µM (inactive)
12 | CCc1cccc(OCC(=O)Nc2ccc(S(=O)(=O)Nc3ccccn3)cc2)c1 | > 43.8 µM (inactive)
13 | COc1ccc(C(=O)N2CCC(C(=O)Nc3ccc(C)cc3)CC2)cc1 | > 43.8 µM (inactive)
14 | Cc1ccc(Cl)cc1N1CCN(S(=O)(=O)c2ccc3c(c2)NC(=O)C(C)C(=O)N3)CC1 (configuration not stated) | > 43.8 µM (inactive)
15 | Clc1ccc2c(c1)-c1ccccc1C1=NCCN12 | inactive
16 | CSc1ccc(OC2CCCCC2NS(=O)(=O)c2ccccc2)cc1 (configuration not stated) | > 43.8 µM (inactive)
17 | O=C(Nc1ccc(OCc2ccccc2)cc1)c1ccccc1 | > 43.8 µM (inactive)
18 | Cc1ccc(NCCN(C)C)c2c(=O)c3cc(O)ccc3sc12 | inactive
19 | COc1ccc(NC(=O)CN2CCN(c3ccccc3C)CC2)cc1 | > 43.8 µM (inactive)
20 | CCOC(=O)c1ccc(NC(=O)COc2ccc(CNCCO)cc2OCC)cc1 | > 43.8 µM (inactive)
21 | CSc1ccc(OC2CCCCC2NS(=O)(=O)c2ccc(Cl)cc2)cc1 (configuration not stated) | > 43.8 µM (inactive)

The next lines start with the values.

Row | IC50 | SMILES
22 | > 43.8 µM (inactive) | COc1ccc2c(=O)c3c(=O)n(-c4ccccc4)c(-c4ccc(C)cc4)nc3oc2c1
23 | inactive | CCOC(=O)c1cnc2c(ccc3ccccc32)c1NCCCN(C)C
24 | inactive | c1ccc2c(c1)C1=NCCN1c1ccccc1-2
25 | > 43.8 µM (inactive) | N=C1C(c2nc3ccccc3s2)=C(O)CN1NC(=O)c1c[nH]c2ccccc12
26 | > 43.8 µM (inactive) | COc1ccc(NC(=O)Cn2cc(C(C)=O)c3ccccc32)cc1
27 | > 43.8 µM (inactive) | CC(C)n1nc(C(=O)Nc2nc3ccccc3[nH]2)c2ccccc2c1=O
28 | inactive | COc1ccc(C(=O)NCCN(C)C)c2nc3ccccc3cc12
29 | > 43.8 µM (inactive) | Cc1cc(C)n2nc(CC(=O)NCc3ccc(F)cc3)nc2n1
30 | inactive | Cc1cc2[nH]c3c4ccccc4nc(C)c3c2cc1C
31 | inactive | CN(C)CCNC(=O)c1cccc2[nH]c(-c3ccncc3)nc12
32 | > 43.8 µM (inactive) | COc1cccc2nc3c(C(=O)NCCN(C)C)cccc3cc12
